Experimental findings from US20050070510A1, “Substituted tetracycline compounds as synergistic antifungal agents” (Paratek Pharmaceuticals, Inc., priority 2001, published 2005) are described below.

The series has as its system COS-1 cells. In words: In vitro mammalian cytotoxicity assay (Resazurin).
As for `CCC(=O)O[C@H]1[C@@]2(N)C(=C(O)[C@]3(C#N)C(=O)C(C(N)=O)=C(O)[C@@H](N(C)C)[C@]13N)C(=O)c1c(ccc(C(C)(C)C)c1O)[C@@H]2N` [BC], the “In Vitro Cytotoxicity” value was “** (toxicities less than 25 μg/mL are represented by **)”.

`CN(C)[C@@H]1C(O)=C(C(N)=O)C(=O)[C@@]2(C#N)C(O)=C3C(=O)c4c(O)ccc(C5C=CCC5)c4C[C@@]3(N)C[C@@]12N` (stereo partly drawn) [FD]: the “In Vitro Cytotoxicity” value was “** (toxicities less than 25 μg/mL are represented by **)”.

Consider `CN(C)[C@@H]1C(O)=C(C(N)=O)C(=O)[C@@]2(C#N)C(O)=C3C(=O)c4c(O)ccc(-c5ccc(NC(=O)C6CC6)cc5)c4C[C@@]3(N)C[C@@]12N` [PB], for which the “In Vitro Cytotoxicity” value was “* (toxicities greater than >25 μg/ml are represented by *)”.

`CN(C)[C@@H]1C(O)=C(C(N)=O)C(=O)[C@@]2(C#N)C(O)=C3C(=O)c4c(ccc(Nc5ccc(-c6ccccc6)s5)c4O)[C@H](N)[C@@]3(N)[C@H](O)[C@@]12N` [DT]: the “In Vitro Cytotoxicity” value is listed as “** (toxicities less than 25 μg/mL are represented by **)”.

Consider `CN(C)CCN(C)Cc1ccc(-c2cc(N(C)C)c3c(c2O)C(=O)C2=C(O)[C@]4(C#N)C(=O)C(C(N)=O)=C(O)[C@@H](N(C)C)[C@]4(N)C[C@]2(N)C3)s1` [ST], for which the “In Vitro Cytotoxicity” value is recorded as “* (toxicities greater than >25 μg/ml are represented by *)”.

For `Cc1cccc(-c2ccc(O)c3c2C[C@@]2(N)C[C@@]4(N)[C@H](N(C)C)C(O)=C(C(N)=O)C(=O)[C@@]4(C#N)C(O)=C2C3=O)n1` [VJ], the “In Vitro Cytotoxicity” value is “** (toxicities less than 25 μg/mL are represented by **)”.

For the molecule `CN(C)[C@@H]1C(O)=C(C(N)=O)C(=O)[C@@]2(C#N)C(O)=C3C(=O)c4c(ccc(CNCC(C)(C)C)c4O)[C@H](N)[C@@]3(N)[C@H](O)[C@@]12N` [RP], the “In Vitro Cytotoxicity” value is “* (toxicities greater than >25 μg/ml are represented by *)”.

Turning to `CCCCCCOC(=O)NCc1cc(N(C)C)c2c(c1O)C(=O)C1=C(O)[C@]3(C#N)C(=O)C(C(N)=O)=C(O)[C@@H](N(C)C)[C@]3(N)C[C@]1(N)C2` [MS], the “In Vitro Cytotoxicity” value was “** (toxicities less than 25 μg/mL are represented by **)”.

On to `CN(C)c1cc(-c2cccc(O)c2)c(O)c2c1C[C@@]1(N)C[C@@]3(N)[C@H](N(C)C)C(O)=C(C(N)=O)C(=O)[C@@]3(C#N)C(O)=C1C2=O` [ES], for which the “In Vitro Cytotoxicity” value is reported as “** (toxicities less than 25 μg/mL are represented by **)”.

In the case of `COc1ccc(CN2CCCC2)cc1-c1ccc2c(c1O)C(=O)C1=C(O)[C@]3(C#N)C(=O)C(C(N)=O)=C(O)[C@@H](N(C)C)[C@]3(N)[C@@H](O)[C@]1(N)[C@H]2N` [PR], the “In Vitro Cytotoxicity” value is listed as “* (toxicities greater than >25 μg/ml are represented by *)”.

For `CN(C)c1cc(NCc2ccc(OC(F)(F)F)cc2)c(O)c2c1C[C@@]1(N)C[C@@]3(N)[C@H](N(C)C)C(O)=C(C(N)=O)C(=O)[C@@]3(C#N)C(O)=C1C2=O` [MQ], the “In Vitro Cytotoxicity” value is recorded as “** (toxicities less than 25 μg/mL are represented by **)”.

Take `CCOC(=O)C(Cc1ccccc1)NCc1ccc(OC)c(-c2ccc(O)c3c2C[C@@]2(N)C[C@@]4(N)[C@H](N(C)C)C(O)=C(C(N)=O)C(=O)[C@@]4(C#N)C(O)=C2C3=O)c1` (stereo partly drawn) [OB]: the “In Vitro Cytotoxicity” value is on record as “** (toxicities less than 25 μg/mL are represented by **)”.

Take `CN(C)[C@@H]1C(O)=C(C(N)=O)C(=O)[C@@]2(C#N)C(O)=C3C(=O)c4c(O)ccc(NS(C)(=O)=O)c4C[C@@]3(N)C[C@@]12N` [RZ]: the “In Vitro Cytotoxicity” value is listed as “* (toxicities greater than >25 μg/ml are represented by *)”.

Consider `CN(C)[C@@H]1C(O)=C(C(N)=O)C(=O)[C@@]2(C#N)C(O)=C3C(=O)c4c(O)ccc(C#Cc5ccc(NS(C)(=O)=O)cc5)c4C[C@@]3(N)C[C@@]12N` [HO], for which the “In Vitro Cytotoxicity” value is recorded as “** (toxicities less than 25 μg/mL are represented by **)”.

With `CC(=O)NCc1cc(-c2ccccc2)c2c(c1O)C(=O)C1=C(O)[C@]3(C#N)C(=O)C(C(N)=O)=C(O)[C@@H](N(C)C)[C@]3(N)C[C@]1(N)C2` [LJ], the “In Vitro Cytotoxicity” value is reported as “* (toxicities greater than >25 μg/ml are represented by *)”.

As to `CN(C)[C@@H]1C(O)=C(C(N)=O)C(=O)[C@@]2(C#N)C(O)=C3C(=O)c4c(O)ccc(-c5ccc(I)c(C=O)c5)c4C[C@@]3(N)C[C@@]12N` [PL], the “In Vitro Cytotoxicity” value is given as “** (toxicities less than 25 μg/mL are represented by **)”.

`CC(C)CC(Cc1ccc(O)c2c1C[C@@]1(N)C[C@@]3(N)[C@H](N(C)C)C(O)=C(C(N)=O)C(=O)[C@@]3(C#N)C(O)=C1C2=O)CC(C)C` [RN]: the “In Vitro Cytotoxicity” value was “** (toxicities less than 25 μg/mL are represented by **)”.

For the molecule `COCCOC(=O)NCc1cc(N(C)C)c2c(c1O)C(=O)C1=C(O)[C@]3(C#N)C(=O)C(C(N)=O)=C(O)[C@@H](N(C)C)[C@]3(N)C[C@]1(N)C2` [MT], the “In Vitro Cytotoxicity” value is reported as “* (toxicities greater than >25 μg/ml are represented by *)”.

As to `CN(C)c1cc(CNC(N)=O)c(O)c2c1C[C@@]1(N)C[C@@]3(N)[C@H](N(C)C)C(O)=C(C(N)=O)C(=O)[C@@]3(C#N)C(O)=C1C2=O` [TD], the “In Vitro Cytotoxicity” value is “* (toxicities greater than >25 μg/ml are represented by *)”.

On to `CN(C)c1cc(/C=C/c2ccc(F)cc2)c(O)c2c1C[C@@]1(N)C[C@@]3(N)[C@H](N(C)C)C(O)=C(C(N)=O)C(=O)[C@@]3(C#N)C(O)=C1C2=O` [CD], for which the “In Vitro Cytotoxicity” value is reported as “** (toxicities less than 25 μg/mL are represented by **)”.

Regarding `CN(C)c1cc(NCc2ccc(O)c(O)c2)c(O)c2c1C[C@@]1(N)C[C@@]3(N)[C@H](N(C)C)C(O)=C(C(N)=O)C(=O)[C@@]3(C#N)C(O)=C1C2=O` [TY], the “In Vitro Cytotoxicity” value is “* (toxicities greater than >25 μg/ml are represented by *)”.

Regarding `CN(C)c1cc(CCC2CCCC2)c(O)c2c1C[C@@]1(N)C[C@@]3(N)[C@H](N(C)C)C(O)=C(C(N)=O)C(=O)[C@@]3(C#N)C(O)=C1C2=O` [KM], the “In Vitro Cytotoxicity” value is given as “** (toxicities less than 25 μg/mL are represented by **)”.

As for `Cc1sc(Nc2ccc3c(c2O)C(=O)C2=C(O)[C@]4(C#N)C(=O)C(C(N)=O)=C(O)[C@@H](N(C)C)[C@]4(N)[C@@H](O)[C@]2(N)[C@H]3O)nc1-c1ccccc1` [DW], the “In Vitro Cytotoxicity” value is given as “** (toxicities less than 25 μg/mL are represented by **)”.

With `COC(=O)c1ccc(-c2ccc(O)c3c2C[C@@]2(N)C[C@@]4(N)[C@H](N(C)C)C(O)=C(C(N)=O)C(=O)[C@@]4(C#N)C(O)=C2C3=O)cc1` [EF], the “In Vitro Cytotoxicity” value is “** (toxicities less than 25 μg/mL are represented by **)”.

On to `CN(C)c1cc(CCc2ccccc2)c(O)c2c1C[C@@]1(N)C[C@@]3(N)[C@H](N(C)C)C(O)=C(C(N)=O)C(=O)[C@@]3(C#N)C(O)=C1C2=O` [MN], for which the “In Vitro Cytotoxicity” value was “** (toxicities less than 25 μg/mL are represented by **)”.

Consider `CN(C)[C@@H]1C(O)=C(C(N)=O)C(=O)[C@@]2(C#N)C(O)=C3C(=O)c4c(O)ccc(-c5ccc(C(F)(F)F)cc5)c4C[C@@]3(N)C[C@@]12N` [FQ], for which the “In Vitro Cytotoxicity” value was “** (toxicities less than 25 μg/mL are represented by **)”.

With `CC(C)COC(=O)NCc1ccc(O)c2c1C[C@@]1(N)C[C@@]3(N)[C@H](N(C)C)C(O)=C(C(N)=O)C(=O)[C@@]3(C#N)C(O)=C1C2=O` [NO], the “In Vitro Cytotoxicity” value is “** (toxicities less than 25 μg/mL are represented by **)”.

In the case of `COCCOC(=O)Nc1ccc(-c2ccc(O)c3c2C[C@@]2(N)C[C@@]4(N)[C@H](N(C)C)C(O)=C(C(N)=O)C(=O)[C@@]4(C#N)C(O)=C2C3=O)cc1` [PY], the “In Vitro Cytotoxicity” value is given as “* (toxicities greater than >25 μg/ml are represented by *)”.

Regarding `CCc1cc(C#Cc2ccc(OC)cc2)c(O)c2c1C[C@@]1(N)C[C@@]3(N)[C@H](N(C)C)C(O)=C(C(N)=O)C(=O)[C@@]3(C#N)C(O)=C1C2=O` [LH], the “In Vitro Cytotoxicity” value was “** (toxicities less than 25 μg/mL are represented by **)”.

As to `CN(C)CC(=O)NCc1cc(N(C)C)c2c(c1O)C(=O)C1=C(O)[C@]3(C#N)C(=O)C(C(N)=O)=C(O)[C@@H](N(C)C)[C@]3(N)C[C@]1(N)C2` [LG], the “In Vitro Cytotoxicity” value was “** (toxicities less than 25 μg/mL are represented by **)”.

As to `COC(=O)C1C(=O)[C@@]2(O)C(O)=C3C(=O)c4c(O)c(N(C)Cc5cc[nH]n5)cc(N(C)C)c4C[C@@]3(N)C[C@@]2(N)[C@H](N(C)C)C1OC` (stereo partly drawn) [VG], the “In Vitro Cytotoxicity” value is listed as “** (toxicities less than 25 μg/mL are represented by **)”.

On to `Cc1noc(C)c1S(=O)(=O)Nc1ccc2c(c1O)C(=O)C1=C(O)[C@]3(C#N)C(=O)C(C(N)=O)=C(O)[C@@H](N(C)C)[C@]3(N)C[C@]1(N)C2` [RI], for which the “In Vitro Cytotoxicity” value is given as “** (toxicities less than 25 μg/mL are represented by **)”.

On to `CN(C)[C@@H]1C(O)=C(C(N)=O)C(=O)[C@@]2(OC(=O)CC(C)(C)C)C(O)=C3C(=O)c4c(ccc(NC(=O)NC(C)(C)C)c4O)[C@H](N)[C@@]3(N)[C@H](O)[C@@]12N` [BG], for which the “In Vitro Cytotoxicity” value is “** (toxicities less than 25 μg/mL are represented by **)”.

Take `CCCCc1ccc(O)c2c1C[C@@]1(N)C[C@@]3(N)[C@H](N(C)C)C(O)=C(C(N)=O)C(=O)[C@@]3(C#N)C(O)=C1C2=O` [KY]: the “In Vitro Cytotoxicity” value is listed as “** (toxicities less than 25 μg/mL are represented by **)”.

In the case of `CC(=O)Nc1cccc(-c2ccc(O)c3c2C[C@@]2(N)C[C@@]4(N)[C@H](N(C)C)C(O)=C(C(N)=O)C(=O)[C@@]4(C#N)C(O)=C2C3=O)c1` [GT], the “In Vitro Cytotoxicity” value is reported as “* (toxicities greater than >25 μg/ml are represented by *)”.

In the case of `CN(C)c1cc(-c2ccc3c(c2)OCO3)c(O)c2c1C[C@@]1(N)C[C@@]3(N)[C@H](N(C)C)C(O)=C(C(N)=O)C(=O)[C@@]3(C#N)C(O)=C1C2=O` [EH], the “In Vitro Cytotoxicity” value is reported as “** (toxicities less than 25 μg/mL are represented by **)”.

For `COc1ccc(C(=O)Nc2ccc(-c3ccc(O)c4c3C[C@@]3(N)C[C@@]5(N)C(N(C)C)C(O)=C(C(N)=O)C(=O)[C@@]5(C#N)C(O)=C3C4=O)cc2)cc1` (stereo partly drawn) [QR], the “In Vitro Cytotoxicity” value is recorded as “** (toxicities less than 25 μg/mL are represented by **)”.

In the case of `CN(C)[C@@H]1C(O)=C(C(N)=O)C(=O)[C@@]2(C#N)C(O)=C3C(=O)c4c(O)ccc(CCCNS(C)(=O)=O)c4C[C@@]3(N)C[C@@]12N` [IV], the “In Vitro Cytotoxicity” value was “* (toxicities greater than >25 μg/ml are represented by *)”.

As for `CN(C)[C@@H]1C(O)=C(C(N)=O)C(=O)[C@@]2(C#N)C(O)=C3C(=O)c4c(ccc(-c5ccc(C=O)c6ccccc56)c4O)[C@H](N)[C@@]3(N)[C@H](O)[C@@]12N` [PN], the “In Vitro Cytotoxicity” value is recorded as “** (toxicities less than 25 μg/mL are represented by **)”.
